The assay concerns T47D (PIK3CA H1047R) cells. Nature of the assay: pS473 AKT assay with 2.5% FBS, T47D cells. The class given is cell-based. The following applies: Homo sapiens, pSer473 AKT, DMEM with 2.5% FBS, 2 h treatment, read-out: T47D_IC50. As for the experimental part:
Example B. pS473 AKT Assay Protocol with 2.5% FBS
T47D (PIK3CA H1047R) cells were cultured using 10-cm petri dishes with recommended medium plus 10% fetal bovine serum. One day before the assay, cells were seeded in 96-well plates. After overnight incubation, the medium was changed to DMEM with 2.5% fetal bovine serum (FBS) and the cells were treated with different concentrations of the compounds for 2 h. Cells were then fixed using 4% paraformaldehyde at room temperature for 20 min. Aspirate 4% paraformaldehyde, and wash cells using 1× regular phosphate buffered saline 3 times, 5 min each. Aspirate any residual phosphate buffered saline and block cells using 10% goat serum containing 1% bovine serum albumin and 0.3% Triton X-100 at room temperature for 1 h. Without any additional washing, primary antibodies (rabbit anti-pSer473 AKT) were diluted using blocking buffer and added at a final volume of 50 microliter per well. Keep assay plates with primary antibodies overnight at 4° C. Wash cells using 1× regular phosphate buffered saline 3 times, 5 min each. After the final wash, incubate cells with horseradish peroxidase-conjugated secondary antibodies (goat Anti-rabbit IgG) diluted using the same blocking buffer at room temperature for 1 h. Wash cells thoroughly using 1× regular phosphate buffered saline 3 times, 5 min each. Aspirate any residual phosphate buffered saline. Add Super-Signal ELISA Pico Chemiluminescent Substrate at a final volume of 100 microliter per well. Read plates on i3x Multi-Mode Microplate Reader and calculate IC50 values using GraphPad Prism software.

Consider `CCn1ncc2c3c(C(C)Nc4ccc(Cl)nc4-c4cnn(C5CCN(C)CC5)c4)cc(C)cc3c(=O)n(C)c21` (stereo not shown) [Compound 79, 9-(1-((6-Chloro-2-(1-(1-methylpiperidin-4-yl)-1H-pyrazol-4-yl)pyridin-3-yl)amino)ethyl)-3-ethyl-4,7-dimethyl-3,4-dihydro-5H-pyrazolo[3,4-c]isoquinolin-5-one], for which the IC50 was less than 1000 nM.

For the molecule `CCn1ncc2c3c(C(C)Nc4ccc(Cl)nc4N4CCN(C(C)=O)CC4)cc(C)cc3c(=O)n(C)c21` (stereo not shown) [Compound 80, 9-(1-((2-(4-Acetylpiperazin-1-yl)-6-chloropyridin-3-yl)amino)ethyl)-3-ethyl-4,7-dimethyl-3,4-dihydro-5H-pyrazolo[3,4-c]isoquinolin-5-one], the IC50 is less than 1000 nM.

On to `Cc1cc(C(C)Nc2ccc(Cl)nc2-c2cnn(C)c2)c2c(c1)c(=O)n(C)c1c2cnn1C1CN(C)C1` (stereo not shown) [Compound 81, 9-(1-((6-Chloro-2-(1-methyl1H-pyrazol-4-yl)pyridin-3-yl)amino)ethyl)-4,7-dimethyl-3-(1-methylazetidin-3-yl)-3,4-dihydro-5H-pyrazolo[3,4-c]isoquinolin-5-one], for which the IC50 was less than 1000 nM.

With `Cc1cc(C(C)Nc2ccc(Cl)nc2-c2ncn(C)n2)c2c(c1)c(=O)n(C)c1c2cnn1C1CN(C)C1` (stereo not shown) [Compound 82, 9-(1-((6-chloro-2-(1-methyl-1H-1,2,4-triazol-3-yl)pyridin-3-yl)amino)ethyl)-4,7-dimethyl-3-(1-methylazetidin-3-yl)-3,4-dihydro-5H-pyrazolo[3,4-c]isoquinolin-5-one], the IC50 was less than 1000 nM.

As to `Cc1cc(C(C)Nc2ccc(Cl)nc2-c2ncn(CCO)n2)c2c(c1)c(=O)n(C)c1c2cnn1C1CN(C)C1` (stereo not shown) [Compound 83, 9-(1-((6-chloro-2-(1-(2-hydroxyethyl)-1H-1,2,4-triazol-3-yl)pyridin-3-yl)amino)ethyl)-4,7-dimethyl-3-(1-methylazetidin-3-yl)-3,4-dihydro-5H-pyrazolo[3,4-c]isoquinolin-5-one], the IC50 was less than 1000 nM.

`Cc1cc(C(C)Nc2ccc(Cl)nc2-c2cn[nH]c2)c2c(c1)c(=O)n(C)c1c2cnn1C1CN(C)C1` (stereo not shown) [Compound 84, 9-(1-((6-chloro-2-(1H-pyrazol-4-yl)pyridin-3-yl)amino)ethyl)-4,7-dimethyl-3-(1-methylazetidin-3-yl)-3,4-dihydro-5H-pyrazolo[3,4-c]isoquinolin-5-one]: the IC50 was less than 1000 nM.

Consider `Cc1cc(C(C)Nc2ccc(Cl)nc2-c2ccc(=O)n(C)c2)c2c(c1)c(=O)n(C)c1c2cnn1C1CN(C)C1` (stereo not shown) [Compound 85, 9-(1-((6-chloro-1′-methyl-6′-oxo-1′,6′-dihydro-[2,3′-bipyridin]-3-yl)amino)ethyl)-4,7-dimethyl-3-(1-methylazetidin-3-yl)-3,4-dihydro-5H-pyrazolo[3,4-c]isoquinolin-5-one], for which the IC50 was less than 1000 nM.

`CNC(=O)c1ccc(-c2cc(Cl)ccc2NC(C)c2cc(C)cc3c(=O)n(C)c4c(cnn4C4CN(C)C4)c23)cn1` (stereo not shown) [Compound 86, 5-(5-chloro-2-((1-(4,7-dimethyl-3-(1-methylazetidin-3-yl)-5-oxo-4,5-dihydro-3H-pyrazolo[3,4-c]isoquinolin-9-yl)ethyl)amino)phenyl)-N-methylpicolinamide]: the IC50 is less than 1000 nM.

Take `Cc1cc(C(C)Nc2ccc(Cl)nc2-c2ccc3c(c2)CN(C)C3=O)c2c(c1)c(=O)n(C)c1c2cnn1C1CN(C)C1` (stereo not shown) [Compound 87, 9-(1-((6-chloro-2-(2-methyl-1-oxoisoindolin-5-yl)pyridin-3-yl)amino)ethyl)-4,7-dimethyl-3-(1-methylazetidin-3-yl)-3,4-dihydro-5H-pyrazolo[3,4-c]isoquinolin-5-one]: the IC50 is less than 1000 nM.

Consider `Cc1cc(C(C)Nc2ccc(Cl)nc2-c2ccc3c(cnn3C)c2)c2c(c1)c(=O)n(C)c1c2cnn1C1CN(C)C1` (stereo not shown) [Compound 88, 9-(1-((6-chloro-2-(1-methyl-1H-indazol-5-yl)pyridin-3-yl)amino)ethyl)-4,7-dimethyl-3-(1-methylazetidin-3-yl)-3,4-dihydro-5H-pyrazolo[3,4-c]isoquinolin-5-one], for which the IC50 was less than 1000 nM.

For the origin of these results see US20250270213A1, “PI3Ka INHIBITORS” (Synnovation Therapeutics, Inc., priority 2022, published 2025).
